Test results taken from patent US6673746B1, “Virulence enhancement of bioherbicides” (priority 1999, dated 2004).

Experiments:
Fusarium oxysporum = assay type: cell-based; details: 0.5 ml of 1000 :g/ml analog in well, minimal medium, 28° C.
Procedure: Mutant selection. The inhibitory effect of valine and valine analogs was tested against the selected Fusarium spp., using a well zone-diffusion assay on a minimal medium. Seven available valine analogs were tested. The gradient plates were prepared as follows: Minimal media was poured into Petri dishes, then a disk (diameter=10 mm) of the solidified medium was cut out (with number 5 cutter) from the center of the plate and filled with the sterile solution of an analog (0.5 ml of a 1000 :g/ml of analog in sterile distilled H2O). The solution was gradually applied to the well and the plates were allowed to dry and form a gradient under the hood for 24 hours. A Fusarium oxysporum microconidia suspension of 10^7 sp/ml was obtained by washing a 10-14 day fungal culture grown on minimal medium (with nitrate) with 10 ml of sterile H2O. Five hundred :1 of the spore suspension was thoroughly spread across the plate with a glass rod. These plates were then incubated at 28° C.

Nicotiana tobaccum = experiment: Amino acid toxicity test on plants, tobacco seedlings; assay type: in vivo; details: 0.1 mM on agar media
Procedure: (§1) Amino Acid Toxicity Tests on Plants. Germinated seeds of Cannabis sativa, Papaver somniferum, and Nicotiana tobaccum were transferred to minimal medium (3% Sucrose (w/v), 1.7 g/l Yeast extract base without amino acids (Difco Laboratories, Detroit, Mich.), 16 g/l Ultrapure Agar (USB, Cleveland, Ohio)) supplemented with increasing concentrations of amino acids. Each amino acid was supplemented at eight concentrations (0 mM, 0.01 mM, 0.1 mM, 0.5 mM, 1 mM, 2 mM, 3 mM, 4 mM), and each treatment was replicated six times. Five pregerminated seeds were placed on each plate, per replication. Plates were incubated at ambient temperature with 12-hour diurnal period for two weeks. The fresh weight per seedling was calculated at the end of the experiment.

Papaver somniferum = experiment: Amino acid toxicity test on plants, Papaver somniferum seedlings; assay type: in vivo; details: for reduction of fresh weight of P. somniferum seedlings: 1 mM; for inhibition of P. somniferum seedling growth compared with the other amino acids: in vivo; for reduction of fresh weight of P. somniferum seedlings vs control: 0.1 mM
Procedure: as §1

Cannabis sativa = assay type: in vivo
Procedure: as §1

CC(C)[C@H](N)C(N)=O [L-valine amide] was tested, and the “inhibitory effect on strains of F. oxysporum” value (“inhibitory effect on strains” for short) (Fusarium oxysporum) was “not inhibitory”.
For CC[C@H](N)C(=O)O [L-amino-n- butyric acid], the “inhibitory effect on strains” value (Fusarium oxysporum) was “not inhibitory”.
For N[C@@H](Cc1c[nH]c2ccccc12)C(=O)O [tryptophan], the “reduction of fresh weight of tobacco seedlings vs control” value (Nicotiana tobaccum) was 20%, the “reduction of fresh weight of P. somniferum seedlings” value (Papaver somniferum) was 20% and the “inhibition of P. somniferum seedling growth compared with the other amino acids” value (Papaver somniferum) was “less inhibitory”.
In the case of CC(C)[C@H](N)C(=O)NO [L-valine hydroxamate], the “inhibitory effect on strains” value (Fusarium oxysporum) is reported as “not inhibitory”.
In the case of CC(C)[C@H](N)C(=O)O [valine], the “reduction of fresh weight of P. somniferum seedlings vs control” value (Papaver somniferum) is reported as “about 60%”, the “reduction of fresh weight of C. sativa seedlings vs control” value (Cannabis sativa; 0.1 mM in minimal medium) is reported as 50% and the “fresh weight of C. sativa seedlings relative to control seedlings” value (Cannabis sativa; 0.1 mM in minimal medium, two weeks) is reported as “half of the control”. The “concentration at which inhibitory effects on growth of C. sativa seedlings start” value (Cannabis sativa; minimal media with nitrate) was 0.1 mM.
For N[C@@H](Cc1ccc(O)cc1)C(=O)O [tyrosine], the “reduction of fresh weight of tobacco seedlings vs control” value (Nicotiana tobaccum) was 50-60%, the “reduction of fresh weight of P. somniferum seedlings vs control” value (Papaver somniferum) was “about 40%” and the “reduction of fresh weight of C. sativa seedlings” value (Cannabis sativa; 1 mM in minimal medium) was 25-30%. For the same compound, the “inhibition of C. sativa seedlings compared with the other amino acids” value (Cannabis sativa; in vivo) was “less inhibitory than other amino acids tested”.
For CC(C)[C@H](N)CO [L-valinol], the “inhibitory effect on strains” value (Fusarium oxysporum) was “not inhibitory”.
In the case of N[C@@H](Cc1ccccc1)C(=O)O [phenylalanine], the “reduction of fresh weight of tobacco seedlings vs control” value (Nicotiana tobaccum) is reported as 20%, the “reduction of fresh weight of P. somniferum seedlings” value (Papaver somniferum) is reported as 20% and the “inhibition of P. somniferum seedling growth compared with the other amino acids” value (Papaver somniferum) is reported as “less inhibitory”. For the same compound, the “reduction of fresh weight of C. sativa seedlings vs control” value (Cannabis sativa; 0.1 mM in minimal medium) was 40-45%.
CCC[C@H](N)C(=O)O [Norvaline] was tested, and the “inhibitory effect on strains” value (Fusarium oxysporum) was “inhibitory”.
In the case of CCC(C)C(=O)C(=O)O (racemic) [DL-α-keto-β-methyl valeric acid], the “inhibitory effect on strains” value (Fusarium oxysporum) is reported as “not inhibitory”.
CC(C)(S)[C@@H](N)C(=O)O [penicillamine] was tested, and the “inhibitory effect on strains” value (Fusarium oxysporum) was “inhibitory”.
